Laboratory results: article PMC6982798, “Evaluation of Isoflavones as Bone Resorption Inhibitors upon Interactions with Receptor Activator of Nuclear Factor-κB Ligand (RANKL)” (Molecules, 2020)

Biological target: T1, sRANKL recombinant (RANKL) (Homo sapiens, UniProt O14788)
T1 construct: gene TNFSF11; human is named only for the docking model (3URF), whose residue numbers (K181, Y235, Q237, Y241) fit human RANKL
T1 sequence (O14788 140-317 limits assumed): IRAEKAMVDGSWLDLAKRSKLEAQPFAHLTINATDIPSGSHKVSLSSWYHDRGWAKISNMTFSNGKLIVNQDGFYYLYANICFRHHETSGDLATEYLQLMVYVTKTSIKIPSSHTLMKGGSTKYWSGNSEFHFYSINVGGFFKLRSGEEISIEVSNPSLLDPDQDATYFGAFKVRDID
Experiment: isothermal titration calorimetry (ITC), single binding mode fit
Details: read-out: KA × 10^3 (L/mol) (converted)
Description: isothermal titration calorimetry (ITC), single binding mode fit on sRANKL recombinant (RANKL)

Point of comparison: `COc1ccc(-c2coc3cc(O)cc(O)c3c2=O)cc1` [Biochanin A], Kd 833 µM. Against it:
- O=c1c(-c2ccc(O)cc2)coc2cc(O)cc(O)c12 [Genistein] — 2.6-fold lower, 317 µM
- O=c1c(-c2ccc(O)cc2)coc2cc(O)ccc12 [Daidzein] — 13-fold lower, 62.7 µM
- COc1ccc(-c2coc3cc(O)ccc3c2=O)cc1 [Formononetin] — 2.6-fold lower, 318 µM
- O=c1oc2cc(O)ccc2c2oc3cc(O)ccc3c12 [Coumestrol] — 1.7-fold higher, 1430 µM
